Laboratory results reported in patent publication US11793849B2, “Method of Chinese herbal medicine extract used for treating multiple diseases caused by drug resistant bacteria infection” (priority 2016, dated 2023).

System: MDRAB
Test: MIC determination, microdilution broth method
Assay type: cell-based, Acinetobacter baumannii
[1] = single use, 20 MDRABs, EA=10% ethanol extract
[2] = single use, 20 MDRABs, EA=water extract
[3] = single use, 20 MDRABs, section of the 60% ethanol extract
[4] = single use, 20 MDRABs, section of the 95% ethanol extract

Method: Determination methods of a Minimal Inhibitory Concentration (MIC) and a Minimum Bactericidal Concentration (MBC) of a test product: the MIC and the MBC of the Pithecellobium clypearia Benth water or ethanol extract to the MDRAB are determined by a microdilution broth method. And it is operated by referring to the microdilution broth method recommended by National Committee for Clinical Laboratory Standards (NCCLS).

Polymycin B [POLB]
MIC50 (MDRABs, EA=60% ethanol extract): 4 µg/mL | MIC90 (MDRABs, EA=60% ethanol extract): 16 µg/mL | MIC Range (MDRABs, EA=60% ethanol extract): 0.5 to 64 µg/mL | MIC50 (MDRABs, EA=95% ethanol extract): 4 µg/mL | MIC90 (MDRABs, EA=95% ethanol extract): 16 µg/mL | MIC Range (MDRABs, EA=95% ethanol extract): 0.5 to 64 µg/mL | MIC50 [1]: 4 µg/mL | MIC90 [1]: 16 µg/mL | MIC Range [1]: 0.5 to 64 µg/mL | MIC50 [2]: 4 µg/mL | MIC90 [2]: 16 µg/mL | MIC Range [2]: 0.5 to 64 µg/mL | MIC50 [3]: 4 µg/mL | MIC90 [3]: 16 µg/mL | MIC50 [4]: 4 µg/mL | MIC90 [4]: 16 µg/mL | MIC (strain A1, EA=60% ethanol extract): 8 µg/mL | MIC (strain A1, EA=95% ethanol extract): 8 µg/mL | MIC (strain A1, single use, EA=10% ethanol extract): 8 µg/mL | MIC (strain A1, single use, EA=water extract): 8 µg/mL | MIC (strain A2, EA=60% ethanol extract): 2 µg/mL | MIC (strain A2, EA=95% ethanol extract): 2 µg/mL | MIC (strain A2, single use, EA=10% ethanol extract): 2 µg/mL | MIC (strain A2, single use, EA=water extract): 2 µg/mL | MIC (strain A3, EA=60% ethanol extract): 2 µg/mL | MIC (strain A3, EA=95% ethanol extract): 2 µg/mL | MIC (strain A3, single use, EA=10% ethanol extract): 2 µg/mL | MIC (strain A3, single use, EA=water extract): 2 µg/mL | MIC (strain A4, EA=60% ethanol extract): 2 µg/mL | MIC (strain A4, EA=95% ethanol extract): 2 µg/mL | MIC (strain A4, single use, EA=10% ethanol extract): 2 µg/mL | MIC (strain A4, single use, EA=water extract): 2 µg/mL | MIC (strain A5, EA=60% ethanol extract): 4 µg/mL | MIC (strain A5, EA=95% ethanol extract): 4 µg/mL | MIC (strain A5, single use, EA=10% ethanol extract): 4 µg/mL | MIC (strain A5, single use, EA=water extract): 4 µg/mL | MIC (strain A6, EA=60% ethanol extract): 8 µg/mL | MIC (strain A6, EA=95% ethanol extract): 8 µg/mL | MIC (strain A6, single use, EA=10% ethanol extract): 8 µg/mL | MIC (strain A6, single use, EA=water extract): 8 µg/mL | MIC (strain A7, EA=60% ethanol extract): 4 µg/mL | MIC (strain A7, EA=95% ethanol extract): 4 µg/mL | MIC (strain A7, single use, EA=10% ethanol extract): 4 µg/mL | MIC (strain A7, single use, EA=water extract): 4 µg/mL | MIC (strain A8, EA=60% ethanol extract): 8 µg/mL | MIC (strain A8, EA=95% ethanol extract): 8 µg/mL | MIC (strain A8, single use, EA=10% ethanol extract): 8 µg/mL | MIC (strain A8, single use, EA=water extract): 8 µg/mL | MIC (strain A9, EA=60% ethanol extract): 1 µg/mL | MIC (strain A9, EA=95% ethanol extract): 1 µg/mL | MIC (strain A9, single use, EA=10% ethanol extract): 1 µg/mL | MIC (strain A9, single use, EA=water extract): 1 µg/mL | MIC (strain A10, EA=60% ethanol extract): 32 µg/mL | MIC (strain A10, EA=95% ethanol extract): 32 µg/mL | MIC (strain A10, single use, EA=10% ethanol extract): 32 µg/mL | MIC (strain A10, single use, EA=water extract): 32 µg/mL | MIC (strain A11, EA=60% ethanol extract): 16 µg/mL | MIC (strain A11, EA=95% ethanol extract): 16 µg/mL | MIC (strain A11, single use, EA=10% ethanol extract): 16 µg/mL | MIC (strain A11, single use, EA=water extract): 16 µg/mL | MIC (strain A12, EA=60% ethanol extract): 2 µg/mL | MIC (strain A12, EA=95% ethanol extract): 2 µg/mL | MIC (strain A12, single use, EA=10% ethanol extract): 2 µg/mL | MIC (strain A12, single use, EA=water extract): 2 µg/mL | MIC (strain A13, EA=60% ethanol extract): 2 µg/mL | MIC (strain A13, EA=95% ethanol extract): 2 µg/mL | MIC (strain A13, single use, EA=10% ethanol extract): 2 µg/mL | MIC (strain A13, single use, EA=water extract): 2 µg/mL | MIC (strain A14, EA=60% ethanol extract): 0.5 µg/mL | MIC (strain A14, EA=95% ethanol extract): 0.5 µg/mL | MIC (strain A14, single use, EA=10% ethanol extract): 0.5 µg/mL | MIC (strain A14, single use, EA=water extract): 0.5 µg/mL | MIC (strain A15, EA=60% ethanol extract): 2 µg/mL | MIC (strain A15, EA=95% ethanol extract): 2 µg/mL | MIC (strain A15, single use, EA=10% ethanol extract): 2 µg/mL | MIC (strain A15, single use, EA=water extract): 2 µg/mL | MIC (strain A16, EA=60% ethanol extract): 4 µg/mL | MIC (strain A16, EA=95% ethanol extract): 4 µg/mL | MIC (strain A16, single use, EA=10% ethanol extract): 4 µg/mL | MIC (strain A16, single use, EA=water extract): 4 µg/mL | MIC (strain A17, EA=60% ethanol extract): 64 µg/mL | MIC (strain A17, EA=95% ethanol extract): 64 µg/mL | MIC (strain A17, single use, EA=10% ethanol extract): 64 µg/mL | MIC (strain A17, single use, EA=water extract): 64 µg/mL | MIC (strain A18, EA=60% ethanol extract): 4 µg/mL | MIC (strain A18, EA=95% ethanol extract): 4 µg/mL | MIC (strain A18, single use, EA=10% ethanol extract): 4 µg/mL | MIC (strain A18, single use, EA=water extract): 4 µg/mL | MIC (strain A19, EA=60% ethanol extract): 4 µg/mL | MIC (strain A19, EA=95% ethanol extract): 4 µg/mL | MIC (strain A19, single use, EA=10% ethanol extract): 4 µg/mL | MIC (strain A19, single use, EA=water extract): 4 µg/mL | MIC (strain A20, EA=60% ethanol extract): 2 µg/mL | MIC (strain A20, EA=95% ethanol extract): 2 µg/mL | MIC (strain A20, single use, EA=10% ethanol extract): 2 µg/mL | MIC (strain A20, single use, EA=water extract): 2 µg/mL
